Results on 1 molecule are retold here after patent US9723860B2, “Method for improving economic performance in poultry husbandry” (PURAC BIOCHEM BV, priority 2012, dated 2017).

In this experiment the test system is Broiler chickens. Nature of the experiment: Example 2: 20 day performance of broilers on decreasing levels of lactylate mixture or diclazuril. Format: in vivo, chicken (broilers). As to conditions: day 20. From the text: Broilers were reared on a diet containing either decreasing levels of a mixture of lauric and myristic lactylates (lactylate test diet), or an effective dose of diclazuril (coccidiostat diet), or a filler consisting of corn starch and kaolin. The birds fed the test diet including the lactylates received the lactylates from the first feed onwards. For the first 10 days, the dosing level of lactylates was 0.4%. From day 11 onwards, the dosing level was reduced to 0.3%. At day 20, the economic performance of the broilers was evaluated using the body weight, body weight gain, feed consumption and feed-to-gain ratio.

Setting [1] is: lactylates 0.4% first 10 days, 0.3% from day 11, diclazuril effective dose, in diet.

Molecules are shown by their SMILES.

Take `N#CC(c1ccc(Cl)cc1)c1c(Cl)cc(-n2ncc(=O)[nH]c2=O)cc1Cl` (centres unmarked) [Coccidiostat, diclazuril]: the “economic performance versus control group” value is “did not improve performance”. Also, under setting [1], the Body weight was found to be 850 g, the Body weight gain is on record as 804 g, the “Feed Consumption” value came out at 1115 g and the Feed-to-Gain ratio came out at 1.388 g/g.
